Measurements from patent US11384060B2, “Amide compounds and use thereof” (ALPHALA CO., LTD., priority 2017, dated 2022).
Like-named read-outs stand apart in the source and are kept apart here.

Assays:
glucagon receptor (GCGR) = target: T1, glucagon receptor (GCGR) (Homo sapiens, UniProt P47871); assay: I125-glucagon binding assay (competition, GCGR membrane fractions)
T1 construct: expressed in transfected cells; host or cells: CHO-K1 cells overexpressing GCGR (membrane fractions)
Outline: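 Competition of 0.0625 nM (final) I^125-glucagon for 30 min at 25° C, after 5 min compound preincubation, using 7.5 μg/well GCGR-overexpressing CHO-K1 membranes in 50 mM Tris pH 7.4, 0.5% BSA. Filtration onto PEI-coated GF/B, micro-beta counting, and non-linear regression gave IC50.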

[1] = target: T2, glucagon receptor (GCGR) overexpressed CHO-K1 cells or human primary hepatocytes (Homo sapiens, UniProt P47871); assay: Glucagon cAMP inhibition assay (Cisbio cAMP Dynamic 2 HTRF); type: cell-based
T2 construct: expressed in transfected cells; host or cells: GCGR overexpressed CHO-K1 cells or human primary hepatocytes (endogenous receptor)
Outline: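 HTRF read-out of glucagon-induced cAMP, with IC50 from non-linear regression. Cells (GCGR CHO-K1 or human primary hepatocytes) in HBSS/0.1% BSA/800 nM IBMX took compound dilutions for 30 min (final DMSO 1%), then EC50-level glucagon for 30 min at room temperature, then a 60 min lysis/detection step.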

[2] = competition with I125-glucagon 0.0625 nM, membrane fractions of GCGR overexpressed CHO-K1 cells
[3] = inhibition of glucagon (EC50 concentration) induced cAMP production

T2 sequence (P47871 26-477): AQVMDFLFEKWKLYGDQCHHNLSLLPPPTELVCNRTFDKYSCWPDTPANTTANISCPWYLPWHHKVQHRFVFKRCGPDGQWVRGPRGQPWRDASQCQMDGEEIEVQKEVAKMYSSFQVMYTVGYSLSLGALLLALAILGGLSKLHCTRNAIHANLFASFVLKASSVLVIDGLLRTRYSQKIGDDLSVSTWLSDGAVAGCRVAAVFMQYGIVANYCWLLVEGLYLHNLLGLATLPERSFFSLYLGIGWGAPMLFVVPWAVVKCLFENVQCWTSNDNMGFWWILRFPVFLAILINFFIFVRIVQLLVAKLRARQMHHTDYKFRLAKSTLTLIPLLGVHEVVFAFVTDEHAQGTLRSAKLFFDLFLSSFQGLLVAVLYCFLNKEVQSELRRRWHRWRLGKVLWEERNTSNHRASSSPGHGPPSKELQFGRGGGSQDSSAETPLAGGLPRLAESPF
T1 sequence (P47871 26-477): as above

Row | IC50 (glucagon receptor (GCGR)) | IC50 cAMP ([1]; uM) | IC50 (glucagon receptor (GCGR); [2]) | IC50 cAMP [1, 3] | IC50 cAMP [1] | Compound
1 | 6020 nM | >10 µM |  |  |  | O=C(O)CCNC(=O)c1ccc(NC(Cc2ccccc2)C(=O)Nc2ccc(C(F)(F)F)cc2)cc1 (stereo in doubt) [Compound 24-4, (S)-3-(4-((1-oxo-3-phenyl-1-((4-(trifluoromethyl)phenyl)amino)propan-2-yl)amino)benzamido)propanoic Acid]
2 |  |  | 64 nM | 0.13 µM |  | CC[C@H](C)[C@@H](COc1cc(Cl)c(-c2cc3ccccc3o2)cc1Cl)Nc1ccc(C(=O)NCCC(=O)O)cc1 [Compound 3-19, 3-(4-(((2S,3S)-1-(4-(benzofuran-2-yl)-2,5-dichlorophenoxy)-3-methylpentan-2-yl)amino)benzamido)propanoic Acid]
3 | > 30000 nM |  |  |  | >30 µM | CC(C)[C@@H](COc1nnc(-c2ccc(C(F)(F)F)cc2F)o1)Nc1ccc(C(=O)NCCC(=O)O)cc1 [Compound 22-17]
4 |  |  | 215 nM | 0.3572 µM |  | CC(C)[C@@H](COc1ccc(-c2ccc(Cl)cc2Cl)cn1)Nc1ccc(C(=O)NCCC(=O)O)cn1 [Compound 16-1, (S)-3-(6-((1-((5-(2,4-dichlorophenyl)pyridin-2-yl)oxy)-3-methylbutan-2-yl)amino)nicotinamido)propanoic Acid]
5 | > 30000 nM |  |  |  | >30 µM | CC(C)[C@@H](COc1nnc(-c2ccc(Cl)cc2Cl)o1)Nc1ccc(C(=O)NCCC(=O)O)cc1 [Compound 22-14, (S)-3-(4-((1-((5-(2,4-dichlorophenyl)-1,3,4-oxadiazol-2-yl)oxy)-3-methylbutan-2-yl)amino)benzamido)propanoic Acid]
6 | 226 nM | >10 µM |  |  |  | CCOC(=O)CCNC(=O)c1ccc(N[C@H](Cc2ccc(-c3ccc(C(C)(C)C)cc3)cc2)C(=O)Nc2ccc(OC(F)(F)F)cc2)cc1 [Compound 24-25, Ethyl (R)-3-(4-((3-(4′-(tert-butyl)-[1,1′-biphenyl]-4-yl)-1-oxo-1-((4-(trifluoromethoxy)phenyl)amino)propan-2-yl)amino)benzamido)propanoate]
7 |  |  | 135 nM | >10 µM |  | CC(C)[C@@H](COc1ccc(-c2ccc(C(F)(F)F)cc2Cl)c(Cl)c1)Nc1ccc(C(=O)NC[C@@H](O)C(=O)O)cc1 [Compound 3-2, (R)-3-(4-(((S)-1-((2,2′-dichloro-4′-(trifluoromethyl)-[1,1′-biphenyl]-4-yl)oxy)-3-methylbutan-2-yl)amino)benzamido)-2-hydroxypropanoic Acid]
8 | 390 nM |  |  |  | 1.543 µM | CC(C)[C@@H](COc1ccc(-c2ccc(C(F)(F)F)cc2)cn1)Nc1ccc(C(=O)NCc2nnn[nH]2)cc1 [Compound 15-2, (S)—N-((1H-tetrazol-5-yl)methyl)-4-((3-methyl-1-((5-(4-(trifluoromethyl)phenyl)pyridin-2-yl)oxy)butan-2-yl)amino)benzamide]
9 |  |  | 139 nM | 0.4948 µM |  | CC[C@H](C)[C@@H](COc1ccc(-c2ccc(Cl)cc2Cl)cc1)Nc1ccc(C(=O)NCCC(=O)O)cc1 [Compound 1-7, 3-(4-(((2S,3S)-1-((2′,4′-dichloro-[1,1′-biphenyl]-4-yl)oxy)-3-methylpentan-2-yl)amino)benzamido)propanoic Acid]
10 |  |  | 233 nM | 3.585 µM |  | CC(C)C[C@@H](COc1cnc(-c2ccc(Cl)cc2Cl)nc1)Nc1ccc(C(=O)NCCC(=O)O)cc1 [Compound 12-11, (S)-3-(4-((1-((2-(2,4-dichlorophenyl)pyrimidin-5-yl)oxy)-4-methylpentan-2-yl)amino)benzamido)propanoic Acid]
11 | 462 nM |  |  |  | 5.2 µM | O=C(O)CCNC(=O)c1ccc(N[C@@H](Cc2ccccc2)C(=O)Nc2ccc(-c3ccc(Cl)cc3Cl)cc2)cc1 [Compound 23-2, (S)-3-(4-((1-((2′,4′-dichloro-[1,1′-biphenyl]-4-yl)amino)-1-oxo-3-phenylpropan-2-yl)amino)benzamido)propanoic Acid]
12 |  |  | 608 nM | >30 µM |  | CC(C)C[C@@H](COc1cnc(-c2cc3ccccc3o2)nc1)Nc1ccc(C(=O)NCCC(=O)O)cc1 [Compound 12-3, (S)-3-(4-((1-((2-(benzofuran-2-yl)pyrimidin-5-yl)oxy)-4-methylpentan-2-yl)amino)benzamido)propanoic Acid]
13 |  |  | 347 nM | 0.352 µM |  | Cc1cc(OC[C@@H](Nc2ccc(C(=O)NCCC(=O)O)cc2)C(C)C)cc(C)c1-c1ccc(C(C)(C)C)cc1 [Compound 2-5, (S)-3-(4-((1-((4′-(tert-butyl)-2,6-dimethyl-[1,1′-biphenyl]-4-yl)oxy)-3-methylbutan-2-yl)amino)benzamido)propanoic Acid]
14 |  |  | 645 nM | 0.1643 µM |  | CCN(c1ccc(C(=O)NCCC(=O)O)cc1)[C@H](COc1ccc(-c2cc3ccccc3o2)cc1)C(C)C [Compound 6-2, (S)-3-(4-((1-(4-(benzofuran-2-yl)phenoxy)-3-methylbutan-2-yl)(ethyl)amino)benzamido)propanoic Acid]
15 |  |  | 17 nM | 0.3136 µM |  | CC(C)[C@@H](COc1ccc(-c2ccc(C(F)(F)F)cc2Cl)c(Cl)c1)Nc1ccc(C(=O)NCCC(=O)O)cc1 [Compound 3-4, (S)-3-(4-((1-((2,2′-dichloro-4′-(trifluoromethyl)-[1,1′-biphenyl]-4-yl)oxy)-3-methylbutan-2-yl)amino)benzamido)propanoic Acid]
16 |  |  | 58 nM | 0.1154 µM |  | CC(C)[C@@H](COc1cc(Cl)c(-c2cc3ccccc3o2)cc1Cl)Nc1ccc(C(=O)NCCC(=O)O)cc1 [Compound 3-14, (S)-3-(4-((1-(4-(benzofuran-2-yl)-2,5-dichlorophenoxy)-3-methylbutan-2-yl)amino)benzamido)propanoic Acid]
17 | > 30000 nM |  |  |  | >30 µM | CCCC[C@@H](COc1nnc(-c2ccc(C(C)(C)C)cc2)o1)Nc1ccc(C(=O)NCCC(=O)O)cc1 [Compound 22-18, (S)-3-(4-((1-((5-(4-(tert-butyl)phenyl)-1,3,4-oxadiazol-2-yl)oxy)hexan-2-yl)amino)benzamido)propanoic Acid]
18 | 2680 nM |  |  |  | >30 µM | Cc1c(-c2nnc([C@H](Cc3ccc(-c4ccc(C(F)(F)F)cc4)cc3)Nc3ccc(C(=O)NCCC(=O)O)cc3)o2)oc2ccccc12 [Compound 20-6, (S)-3-(4-((1-(5-(3-methylbenzofuran-2-yl)-1,3,4-oxadiazol-2-yl)-2-(4′-(trifluoromethyl)-[1,1′-biphenyl]-4-yl)ethyl)amino)benzamido)propanoic Acid]
19 |  |  | 1670 nM | >30 µM |  | CC(C)[C@@H](COc1cnc(-c2ccc(Cl)cc2Cl)nc1)Nc1ccc(C(=O)NCCC(=O)O)cc1 [Compound 12-6, (S)-3-(4-((1-((2-(2,4-dichlorophenyl)pyrimidin-5-yl)oxy)-3-methylbutan-2-yl)amino)benzamido)propanoic Acid]
20 |  |  | 391 nM | 0.2042 µM |  | CC(C)[C@@H](COc1ccc(-c2cc3ccccc3o2)cc1)N(C)c1ccc(C(=O)NCCC(=O)O)cc1 [Compound 6-1, (S)-3-(4-((1-(4-(benzofuran-2-yl)phenoxy)-3-methylbutan-2-yl)(methyl)amino)benzamido)propanoic Acid]
21 | > 30000 nM |  |  |  | >30 µM | CC[C@H](C)[C@@H](COc1nnc(-c2ccc(Cl)cc2Cl)o1)Nc1ccc(C(=O)NCCC(=O)O)cc1 [Compound 22-11, 3-(4-(((2S,3S)-1-((5-(2,4-dichlorophenyl)-1,3,4-oxadiazol-2-yl)oxy)-3-methylpentan-2-yl)amino)benzamido)propanoic Acid]
22 |  |  | 51 nM | 0.2691 µM |  | CC[C@H](C)[C@@H](COc1ccc(-c2ccc(Cl)cc2Cl)c(F)c1)Nc1ccc(C(=O)NCCC(=O)O)cc1 [Compound 8-11, 3-(4-(((2S,3S)-1-((2′,4′-dichloro-2-fluoro-[1,1′-biphenyl]-4-yl)oxy)-3-methylpentan-2-yl)amino)benzamido)propanoic Acid]
23 |  |  | 539 nM | 9.828 µM |  | CC(C)[C@@H](COc1cnc(-c2ccc(C(F)(F)F)cc2Cl)nc1)Nc1ccc(C(=O)NCCC(=O)O)cc1 [Compound 12-4]
24 |  |  | 98 nM | 3.305 µM |  | CC[C@H](C)[C@@H](COc1ccc(-c2cc3ccccc3o2)cc1)Nc1ccc(C(=O)NCc2nnn[nH]2)cc1 [Compound 1-8]
25 | 763 nM |  |  |  | 1.788 µM | CCCOC[C@H](Cc1ccc(-c2ccc(C(C)(C)C)cc2)cc1)Nc1ccc(C(=O)NCCC(=O)O)cc1 [Compound 19-12, (S)-3-(4-((1-(4′-(tert-butyl)-[1,1′-biphenyl]-4-yl)-3-propoxypropan-2-yl)amino)benzamido)propanoic Acid]
26 | 195 nM |  |  |  | 0.373 µM | CC(C)CC[C@@H](Cc1ccc(-c2ccc(C(F)(F)F)cc2)cc1)Nc1ccc(C(=O)NCCC(=O)O)cc1 [Compound 19-10, (S)-3-(4-((5-methyl-1-(4′-(trifluoromethyl)-[1,1′-biphenyl]-4-yl)hexan-2-yl)amino)benzamido)propanoic Acid]
27 |  |  | 93 nM | 0.495 µM |  | CC(C)[C@@H](COc1cc(F)c(-c2cc3ccccc3o2)c(F)c1)Nc1ccc(C(=O)NCCC(=O)O)cc1 [Compound 7-1, (S)-3-(4-((1-(4-(benzofuran-2-yl)-3,5-difluorophenoxy)-3-methylbutan-2-yl)amino)benzamido)propanoic Acid]
